Data published in PubChem BioAssay AID1195 (EPA DSSTox, 2008).

System: human maximum recommended daily dose, FDA database
Assay: DSSTox (FDAMDD) FDA Maximum (Recommended) Daily Dose Database
Conditions: hits give low values
Procedure, shortened: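 MRDD values come from clinical trials with daily oral dosing, usually for 3–12 months, for the average adult, in mg/day converted to mg/kg-bw/day assuming 60 kg. Antineoplastic mg/m2 doses are divided by 37. Activity score maps log10(1/MRDD mmol) onto 1–100.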

[1] = TherapeuticCategory: antibacterial
[2] = TherapeuticCategory: glucocorticoid
[3] = TherapeuticCategory: antineoplastic
[4] = TherapeuticCategory: antidiabetic
[5] = TherapeuticCategory: antidepressant
[6] = TherapeuticCategory: antihypertensive
[7] = TherapeuticCategory: diagnostic aid

## CC(C)(O)c1ccccc1CC[C@@H](SCC1(CC(=O)O)CC1)c1cccc(/C=C/c2ccc3ccc(Cl)cc3n2)c1
TherapeuticCategory: antiasthmatic
  maximum recommended daily dose (mmol/kg-bw/day): 0.000285

## COc1cc(NS(=O)(=O)c2ccc(N)cc2)nc(OC)n1
[1]
  maximum recommended daily dose (mmol/kg-bw/day): 0.107

## CCOc1c(N2CCOCC2)cnn(C)c1=O
TherapeuticCategory: analgesic, anti inflammatory
  maximum recommended daily dose (mmol/kg-bw/day): 0.0139

## C[C@]12C=CC(=O)C=C1CC[C@@H]1[C@@H]2[C@@H](O)C[C@@]2(C)[C@H]1CC[C@]2(O)C(=O)COC(=O)CCC(=O)O
[2]
  maximum recommended daily dose (mmol/kg-bw/day): 0.0069

## O=C1Cc2cc(CCN3CCN(c4nsc5ccccc45)CC3)c(Cl)cc2N1
TherapeuticCategory: antipsychotic, dopamine receptor antagonist, seratonin receptor antagonist
  maximum recommended daily dose (mmol/kg-bw/day): 0.00647

## N[C@@H](Cc1cnc[nH]1)C(=O)O
TherapeuticCategory: none
  maximum recommended daily dose (mmol/kg-bw/day): 0.645

## CC(C)NCC(O)COc1cccc2[nH]ccc12 (stereo unspecified)
TherapeuticCategory: antihypertensive, antianginal, antiarrhythmic, antiglaucomic
  maximum recommended daily dose (mmol/kg-bw/day): 0.00403

## C[C@@H]1CN2CC(=O)Nc3ccc(Cl)cc3[C@]2(c2ccccc2)O1
TherapeuticCategory: anxiolytic
  maximum recommended daily dose (mmol/kg-bw/day): 0.00304

## CCN(CC)CCOC(=O)C(Cc1cccc2ccccc12)CC1CCCO1 (stereo unspecified)
TherapeuticCategory: vasodilator
  maximum recommended daily dose (mmol/kg-bw/day): 0.0261

## Nc1nc(Cl)nc2c1ncn2[C@H]1C[C@H](O)[C@@H](CO)O1
[3]
  maximum recommended daily dose (mmol/kg-bw/day): 0.000315

## COc1ccc2c(c1)C(=O)N(CCc1ccc(S(=O)(=O)NC(=O)NC3CCCCC3)cc1)C(=O)C2(C)C
[4]
  maximum recommended daily dose (mmol/kg-bw/day): 0.0019

## CC(=O)NCCOC(=O)C(Oc1cccc(C(F)(F)F)c1)c1ccc(Cl)cc1 (stereo unspecified)
TherapeuticCategory: antihyperlipoproteinemic, uricosuric
  maximum recommended daily dose (mmol/kg-bw/day): 0.0402

## CC1=C(/C=C/C(C)=C/C=C/C(C)=C/C=C/C=C(C)/C=C/C=C(C)/C=C/C2=C(C)C(=O)CCC2(C)C)C(C)(C)CCC1=O
TherapeuticCategory: antioxidant
  maximum recommended daily dose (mmol/kg-bw/day): 0.0443

## CO[C@@]1(NC(=O)C2SC(=C(C(N)=O)C(=O)O)S2)C(=O)N2C(C(=O)O)=C(CSc3nnnn3C)CS[C@@H]21 (stereo partly specified)
[1]
  maximum recommended daily dose (mmol/kg-bw/day): 0.116

## C[C@]12C=CC(=O)C=C1CC[C@@H]1[C@@H]2CC[C@@]2(C)[C@H]1CC[C@]2(C)O
TherapeuticCategory: androgen
  maximum recommended daily dose (mmol/kg-bw/day): 0.000222

## Cc1cc(C(=O)NNCc2ccccc2)no1
[5]
  maximum recommended daily dose (mmol/kg-bw/day): 0.00432

## CN(Cc1cnc2nc(N)nc(N)c2n1)c1ccc(C(=O)N[C@@H](CCC(=O)O)C(=O)O)cc1
TherapeuticCategory: antineoplastic, antirheumatic
  maximum recommended daily dose (mmol/kg-bw/day): 0.0011

## CC(=O)c1ccc(S(=O)(=O)NC(=O)NC2CCCCC2)cc1
[4]
  maximum recommended daily dose (mmol/kg-bw/day): 0.0771

## CCCC(CCC)C(=O)O
TherapeuticCategory: anticonvulsant, antiepileptic
  maximum recommended daily dose (mmol/kg-bw/day): 0.289

## CN=C(NC)NCc1ccccc1
[6]
  maximum recommended daily dose (mmol/kg-bw/day): 0.0188

## N[C@@H](Cc1ccc(O)cc1)C(=O)O
TherapeuticCategory: none
  maximum recommended daily dose (mmol/kg-bw/day): 0.552

## CCC(=O)O[C@H]1[C@H](O[C@@H]2[C@@H](C)[C@H](O[C@H]3C[C@@](C)(OC)[C@@H](O)[C@H](C)O3)[C@@H](C)C(=O)O[C@H](CC)[C@@](C)(O)[C@H](O)[C@@H](C)C(=O)[C@H](C)C[C@@]2(C)O)O[C@H](C)C[C@@H]1N(C)C
[1]
  maximum recommended daily dose (mmol/kg-bw/day): 0.0844

## NCCc1ccn[nH]1
[7]
  maximum recommended daily dose (mmol/kg-bw/day): 0.0045

## NCC(=O)O
TherapeuticCategory: none
  maximum recommended daily dose (mmol/kg-bw/day): 1.33

## COc1ccc2c3c1O[C@H]1[C@@H](O)C=C[C@H]4[C@@H](C2)N(C)CC[C@@]341
TherapeuticCategory: narcotic analgesic, antitussive
  maximum recommended daily dose (mmol/kg-bw/day): 0.02

## CCC(c1ccc2cc(OC)ccc2c1)C(C)(C)C(=O)O (stereo unspecified)
TherapeuticCategory: estrogen
  maximum recommended daily dose (mmol/kg-bw/day): 0.000524

## COc1cc(NS(=O)(=O)c2ccc(N)cc2)nc(C)n1
[1]
  maximum recommended daily dose (mmol/kg-bw/day): 0.113

## C[C@H]1C[C@@H]2[C@H]([C@@H](O)C[C@@]3(C)[C@H]2CC[C@]3(O)C(=O)COC(=O)CCC(=O)O)[C@@]2(C)C=CC(=O)C=C12
[2]
  maximum recommended daily dose (mmol/kg-bw/day): 0.0084

## O=C(O)CCCC[C@@H]1SC[C@@H]2NC(=O)N[C@@H]21
TherapeuticCategory: none
  maximum recommended daily dose (mmol/kg-bw/day): 1.36e-05

## CC1=C(/C=C/C(C)=C/C=C/C(C)=C/C=C/C=C(C)/C=C/C=C(C)/C=C/C2=C(C)CCCC2(C)C)C(C)(C)CCC1
TherapeuticCategory: vitamin A precursor, UV screen
  maximum recommended daily dose (mmol/kg-bw/day): 9.31e-05

## CCCN(CC)C(CC)C(=O)Nc1c(C)cccc1C (stereo unspecified)
TherapeuticCategory: local anesthetic
  maximum recommended daily dose (mmol/kg-bw/day): 0.0241

## CNC(C)[C@@H]1CC[C@@H](N)[C@@H](O[C@H]2[C@H](O)[C@@H](O[C@H]3OC[C@](C)(O)[C@H](NC)[C@H]3O)[C@H](N)C[C@@H]2N)O1 (stereo partly specified)
[1]
  maximum recommended daily dose (mmol/kg-bw/day): 0.00628

## CC(C)NCC(O)c1ccc(NS(C)(=O)=O)cc1 (stereo unspecified)
TherapeuticCategory: antianginal, antiarrhythmic, antihypertensive
  maximum recommended daily dose (mmol/kg-bw/day): 0.0196

## O=C1N(Cc2ccccc2)C2C[S+]3CCCC3C2N1Cc1ccccc1 (stereo unspecified)
[6]
  maximum recommended daily dose (mmol/kg-bw/day): 0.000112

## O=C(O)CCC(=O)O
TherapeuticCategory: antiulcerative
  maximum recommended daily dose (mmol/kg-bw/day): 0.847

## CC(C)c1cccc(C(C)C)c1O
TherapeuticCategory: anesthetic
  maximum recommended daily dose (mmol/kg-bw/day): 0.014

## COc1cc2c3cc1Oc1cc(ccc1O)C[C@@H]1c4c(cc(OC)c(O)c4Oc4ccc(cc4)C[C@@H]3N(C)CC2)CC[N+]1(C)C
TherapeuticCategory: skeletal muscle relaxant, diagnostic aid
  maximum recommended daily dose (mmol/kg-bw/day): 0.000979

## COc1cccc(OC)c1C(=O)N[C@@H]1C(=O)N2[C@@H]1SC(C)(C)[C@@H]2C(=O)O
[1]
  maximum recommended daily dose (mmol/kg-bw/day): 0.526

## CC[N+]1(C)[C@@H]2CC(OC(=O)[C@H](CO)c3ccccc3)C[C@H]1[C@@H]1O[C@@H]12 (stereo partly specified)
TherapeuticCategory: bronchodilator
  maximum recommended daily dose (mmol/kg-bw/day): 2.43e-05

## NC(=O)c1cccnc1
TherapeuticCategory: vitamin
  maximum recommended daily dose (mmol/kg-bw/day): 0.0682

## C[C@H](CN1CCOCC1)C(C(=O)N1CCCC1)(c1ccccc1)c1ccccc1
TherapeuticCategory: narcotic analgesic
  maximum recommended daily dose (mmol/kg-bw/day): 0.000848

## CC(=O)O[C@H]1C(=O)[C@@]2(C)[C@H]([C@H](OC(=O)c3ccccc3)[C@]3(O)C[C@H](OC(=O)[C@H](O)[C@@H](NC(=O)c4ccccc4)c4ccccc4)C(C)=C1C3(C)C)[C@]1(OC(C)=O)CO[C@@H]1C[C@@H]2O
[3]
  maximum recommended daily dose (mmol/kg-bw/day): 0.00554

## NNc1nncc2ccccc12
[6]
  maximum recommended daily dose (mmol/kg-bw/day): 0.0208

## CC1=CC(=O)c2ccccc2C1=O
TherapeuticCategory: prothrombogenic vitamin
  maximum recommended daily dose (mmol/kg-bw/day): 0.000193

## C[C@]1(Cn2ccnn2)[C@H](C(=O)O)N2C(=O)C[C@H]2S1(=O)=O
[1]
  maximum recommended daily dose (mmol/kg-bw/day): 0.0833

## CNC(C)(C)Cc1ccccc1
TherapeuticCategory: adrenergic
  maximum recommended daily dose (mmol/kg-bw/day): 0.00613

## CC(C)Cc1ccc(C(C)C(=O)OCc2ccccn2)cc1 (stereo unspecified)
TherapeuticCategory: anti inflammatory
  maximum recommended daily dose (mmol/kg-bw/day): 0.135

## CC(NC(C)(C)C)C(=O)c1cccc(Cl)c1 (stereo unspecified)
[5]
  maximum recommended daily dose (mmol/kg-bw/day): 0.0313

## O=C(O)c1cc(N=Nc2ccc(O)c(C(=O)O)c2)ccc1O
TherapeuticCategory: treatment of ulcerative colitis
  maximum recommended daily dose (mmol/kg-bw/day): 0.0553

## O=NN(CCCl)C(=O)NC1CCCCC1
[3]
  maximum recommended daily dose (mmol/kg-bw/day): 0.015

## Cc1ccc(/C(=C\CN2CCCC2)c2cccc(/C=C/C(=O)O)n2)cc1
TherapeuticCategory: antihistaminic
  maximum recommended daily dose (mmol/kg-bw/day): 0.00153

## CC[N+](C)(C)Cc1ccccc1Br
TherapeuticCategory: antiadrenergic, cardiac depressant
  maximum recommended daily dose (mmol/kg-bw/day): 0.0121

## CC(=O)O[C@H]1C[C@@H]2CC[C@@H]3[C@H](CC[C@@]4(C)[C@H]3C[C@H]([N+]3(C)CCCCC3)[C@@H]4OC(C)=O)[C@@]2(C)C[C@@H]1[N+]1(C)CCCCC1
TherapeuticCategory: skeletal muscle relaxant
  maximum recommended daily dose (mmol/kg-bw/day): 0.000136

## CO/N=C(\C(=O)N[C@@H]1C(=O)N2C(C(=O)O)=C(CSc3nnnn3C)CS[C@H]12)c1csc(N)n1
[1]
  maximum recommended daily dose (mmol/kg-bw/day): 0.13

## CCOC(=O)C1=C[C@]2(CC)CCCN3CCc4c(n1c1ccccc41)[C@@H]32
TherapeuticCategory: cerebral vasodilator
  maximum recommended daily dose (mmol/kg-bw/day): 0.00143

## CCOC(=O)[C@H](CCc1ccccc1)N[C@@H](C)C(=O)N1[C@H](C(=O)O)C[C@@H]2CCC[C@@H]21
[6]
  maximum recommended daily dose (mmol/kg-bw/day): 0.000799

## CN[C@@H]1[C@H](O[C@H]2[C@H](O[C@H]3[C@H](O)[C@@H](O)[C@H](N=C(N)N)[C@@H](O)[C@@H]3N=C(N)N)O[C@@H](C)[C@]2(O)C=O)O[C@@H](CO)[C@H](O)[C@H]1O
[1]
  maximum recommended daily dose (mmol/kg-bw/day): 0.0344

## CO/N=C(/C(=O)N[C@@H]1C(=O)N2C(C(=O)O)=C(COC(N)=O)CS[C@H]12)c1ccco1
[1]
  maximum recommended daily dose (mmol/kg-bw/day): 0.0394

## O=C(O)CCC(=O)c1ccc2c(c1)-c1cccc3cccc-2c13
TherapeuticCategory: choleretic
  maximum recommended daily dose (mmol/kg-bw/day): 0.0552

## COC(=O)C1=C(C)NC(C)=C(C(=O)O[C@@H]2CCCN(Cc3ccccc3)C2)[C@@H]1c1cccc([N+](=O)[O-])c1
TherapeuticCategory: antihypertensive, Ca channel blocker
  maximum recommended daily dose (mmol/kg-bw/day): 0.000263

## CNC(=O)c1c(I)c(NC(C)=O)c(I)c(C(=O)O)c1I
[7]
  maximum recommended daily dose (mmol/kg-bw/day): 0.163

## CCN(CC)C(=S)SSC(=S)N(CC)CC
TherapeuticCategory: alcohol deterrent
  maximum recommended daily dose (mmol/kg-bw/day): 0.0281

## CCN(CC)CCNc1ccc(C)c2sc3ccccc3c(=O)c12
TherapeuticCategory: antihelmintic
  maximum recommended daily dose (mmol/kg-bw/day): 0.0978

## C[C@H]1C[C@H]2[C@@H]3CCC4=CC(=O)C=C[C@]4(C)[C@H]3C(=O)C[C@]2(C)[C@@]1(O)C(=O)CO
[2]
  maximum recommended daily dose (mmol/kg-bw/day): 0.00215

## CO[C@@]1(NC(=O)C(C(=O)O)c2ccc(O)cc2)C(=O)N2C(C(=O)O)=C(CSc3nnnn3C)CO[C@@H]21 (stereo partly specified)
[1]
  maximum recommended daily dose (mmol/kg-bw/day): 0.128

## CN(CCO)CC(O)Cn1cnc2c1c(=O)n(C)c(=O)n2C (stereo unspecified) (tested in a mixture with another compound)
TherapeuticCategory: peripheral vasodilator
  maximum recommended daily dose (mmol/kg-bw/day): 0.0575

## OC[C@@H](O)[C@H]1O[C@@H]2O[C@H](C(Cl)(Cl)Cl)O[C@@H]2[C@H]1O
TherapeuticCategory: sedative, hypnotic
  maximum recommended daily dose (mmol/kg-bw/day): 0.0269

## NC(=O)NNc1ccccc1
TherapeuticCategory: antipyretic
  maximum recommended daily dose (mmol/kg-bw/day): 0.165

## CC(CC1c2ccccc2CCc2ccccc21)CN(C)C (stereo unspecified)
[5]
  maximum recommended daily dose (mmol/kg-bw/day): 0.00852

## CN(CCCN1c2ccccc2CCc2ccccc21)CC(=O)c1ccc(Cl)cc1
[5]
  maximum recommended daily dose (mmol/kg-bw/day): 0.00835

## COc1cc(NC(C)CCCN)c2ncccc2c1 (stereo unspecified)
TherapeuticCategory: antimalarial
  maximum recommended daily dose (mmol/kg-bw/day): 0.00289
